Laboratory results as given in publication PMC7330483, “Identification of a Broad-Spectrum Viral Inhibitor Targeting a Novel Allosteric Site in the RNA-Dependent RNA Polymerases of Dengue Virus and Norovirus” (Frontiers in Microbiology, 2020).
Entries after “also recorded” stand apart in the source; their conditions may differ.

What was measured:
hNV RdRp = assay: Bio-layer interferometry (BLI) binding assay, hNV RdRp; conditions: read-out: KD hNV RdRp, 1:1 binding model, global fit
Jc1-Gluc HCVcc = assay: Infection assay with Jc-1-Gluc HCVcc in Huh7.5.1 cells; assay type: cell-based, hepatitis C virus (HCV); conditions: Hepatitis C virus
Experimental: 2 × 10^4 per well Huh7.5.1 cells were seeded into 96-well plates for 24 h, and then cells were incubated with RAI-13 (1 μM) and Jc1-Gluc HCVcc at an MOI of 1 for 4 h. Next, the culture supernatants were replaced by Fresh medium with 1 μM RAI-13. After 48 h, we measured the amounts of infectious Jc1 HCVcc in the supernatant by detecting the activity of Gaussia luciferase (Gluc), using a Centro XS3 LB 960 luminometer.

DENV RdRp [1] = biological target: T1, DENV RdRp (Dengue virus type 3, UniProt Q6YMS4); assay: DENV-RdRp inhibition assay (PicoGreen dsRNA formation); assay type: biochemical; parameters: RdRp gens of DENV; inferred from Ni-NTA purification and the pET-21a(+) vector); made in house; host or cells: Escherichia coli BL21; conditions: 40 μM compound
Experimental: Polymerase activity was measured by detecting the formation of double-stranded RNA (dsRNA) using the fluorescent dye PicoGreen ([Singer et al., 1997]). RdRp assays were performed in a black 96-well plates, which protects reaction mixture from light. In vitro RNA synthesis assays were performed using a single-stranded RNA poly(C) as template and GTP as substrate in a 25 μL reaction mixture. 5 μL of DENV-RdRp (20 μM), dissolved in a reaction buffer containing 20 mM Tris–HCl (pH 7.4), 2.5 mM MnCl2, 5 mM DTT, was incubated with 1 μL of 1 mM compound (RAI-5, RAI-13, RAI-14, and JF-31-MG46 served as positive control) or the compound vehicle DMSO at 30°C for 10 min. Subsequently, 1 μL of 1 mg/mL poly(C) and 2 μL of 625 μM GTP were added into the mixture for 60 min at 30°C. The final concentrations of the reaction components are 4 μM DENV-RdRp, […], 50 μM GTP, 40 μM compound, 4% DMSO, […] (pH 7.4), 2.5 mM MnCl2 and 5 mM DTT. The reaction was terminated with 10 mM EDTA. After that, 175 μL of fluorescent dye PicoGreen, diluted 200-fold with TE buffer, was added to each well for 5 min at room temperature. Microplate reader was used to quantify the amount of dsRNA at standard wavelengths (excitation 480 nm, emission 520 nm).

[2] = test system: Gaussia luciferase (Gluc); assay: Effect on Gluc activity in pcDNA-Gluc transfected Huh7.5.1 cells (negative control); assay type: cell-based; conditions: concentrations up to 5 μM, 48 h
MNV(SH1603) = assay: Infection assay with MNV in RAW264.7 cells (qRT-PCR); assay type: cell-based, murine norovirus (MNV)
A549 cells = assay: Cytotoxicity analysis (Cell Counting kit-8), A549; assay type: cell-based; conditions: up to 10 μM, 48 h, CCK-8
Experimental: (§1) Twenty-four hour prior to the cytotoxicity assay, 4 × 10^4 RAW264.7 or A549 cells were seeded in 96-well plates. After that, 2-fold serial dilutions (from 0.625 to 40 μM) of RAI-13 were added to the cells. Cells treated with DMSO were served as the control. Cells were cultivated for 48 h, after that the cell viability was assessed by Cell Counting kit-8.

[3] = Cytotoxicity analysis (Cell Counting kit-8), A549; assay type: cell-based; conditions: human, A549 cells, CCK-8
Experimental: as §1

hNV-RdRp = hNV-RdRp inhibition assay (PicoGreen dsRNA formation); assay type: biochemical, Norovirus GII.4 Sydney 2012; conditions: dose response, two-fold dilutions
DENV RdRp [4] = biological target: T1, DENV RdRp; assay: Bio-layer interferometry (BLI) binding assay, DENV RdRp
[5] = oral, rat; no reference given; cited from earlier work
RAW264.7 cells = assay: Cytotoxicity analysis (Cell Counting kit-8), RAW264.7; assay type: cell-based; conditions: up to 10 μM, 48 h, CCK-8
Experimental: as §1

[6] = as above; assay type: cell-based; conditions: mouse, RAW264.7 cells, CCK-8
Experimental: as §1

DENV2 (Tr1751) = assay: Infection assay with DENV2 in A549 cells (qRT-PCR); assay type: cell-based
Experimental: 5 × 10^5 per well A549 cells were seeded into 6-well plates for 24 h, and infected with DENV2 (Tr1751) at an MOI of 0.1 in the presence of RAI-13 with 2-fold dilutions (from 0.08 to 20 μM) for 4 h. The culture supernatants were replaced by Fresh medium with RAI-13 with 2-fold dilutions. Cells were harvested at 48 h.p.i. The RNA extraction kit was used to extract total RNA. The level of viral RNA was determined by qRT-PCR analysis through one-step SYBR PrimeScript RT-PCR kit ([Yi et al., 2019]). The primer pair (forward: 5′-[…]-3′ and reverse: 5′-[…]-3′) amplifies partial envelop protein E gene of DENV2. The Forward and Reverse primers were also, respectively, used for minus-strand and plus-strand RNA reverse transcription. Human glyceraldehyde-3-phosphate dehydrogenase (hGAPDH) was served as an internal control and amplified with primers 5′-ATCA[…]-3′ and 5′-[…]-3′.

VSV-G/HIV-Fluc = assay type: cell-based, human immunodeficiency viruses type 1 (HIV-1)
DENV RdRp [7] = biological target: DENV RdRp; parameters: method as in Noble et al., 2016; conditions: ref Noble et al., 2016; read-out: KD DENV RdRp (literature); cited from earlier work

Work on `CN1CCN(c2ccc(C(=O)Nc3n[nH]c4ccc(Cc5cc(F)cc(F)c5)cc34)c(NC3CCOCC3)c2)CC1` [RAI-13, Entrectinib] yielded a Kd (hNV RdRp) of 39.9 µM, an inhibition at 1 µM (Jc1-Gluc HCVcc; Huh-7.5.1, 48 h, read-out: inhibition of Jc1 HCVcc infection) of 95% and an inhibition at 2 µM (Jc1-Gluc HCVcc; Huh-7.5.1, read-out: inhibition of HCV infection (abstract)) of 95%. For the same molecule, the “inhibitory effect on DENV RdRp activity” value (DENV RdRp [1]) was “markedly inhibited”, the “effect on Gluc activity” value [2] was “no inhibitory effect” and the “plus-strand and minus-strand RNA levels of MNV” value (MNV(SH1603); 2.5 μM, infected RAW264.7 cells) was “inhibits the synthesis of both plus-strand and minus-strand RNA”. For the same molecule, the IC50 (MNV(SH1603); Norwalk virus, RAW264.7, in abstract, read-out: IC50 inhibition of MNV infection (abstract)) was 2.01 µM, the EC50 (MNV(SH1603); Norwalk virus, RAW264.7 cells, 48 h, MNV RNA by qRT-PCR, read-out: EC50 inhibition of MNV infection) was 2.01 µM and the “cytotoxic effect on A549 cells” value (A549 cells) was “No cytotoxic effect; also recorded: did not observe apparent cytotoxicity”. It also gave a CC50 at 48 h [3] of 20.8 µM, an IC50 (hNV-RdRp) of 46.9 µM and a Kd (DENV RdRp [4]) of 166 µM. The LD50 [5] was “above 2000 mg/kg”, the “cytotoxic effect on RAW264.7 cells” value (RAW264.7 cells) was “No cytotoxic effect; also recorded: did not observe apparent cytotoxicity” and the CC50 at 48 h [6] was 13.2 µM. For the same molecule, the “plus-strand and minus-strand RNA levels of DENV2” value (DENV2 (Tr1751); 2 μM, infected A549 cells) was “inhibits the synthesis of both plus-strand and minus-strand RNA”, the IC50 (DENV2 (Tr1751); Dengue virus, DENV2, A549, read-out: IC50 inhibition of DENV2 infection (abstract)) was 2.43 µM and the EC50 (DENV2 (Tr1751); Dengue virus, A549 cells, 48 h, DENV2 RNA by qRT-PCR, read-out: EC50 inhibition of DENV2 infection) was 2.43 µM. The “inhibition of HIV-1 (VSV-G/HIV-Fluc) infection” value (VSV-G/HIV-Fluc) was “did not show any inhibition effect”.
In the case of `COc1ccc(CC(=O)O)cc1-c1ccccc1` [JF-31-MG46, 2-(4-methoxy-3-phenyl-phenyl)ethanoic acid], the Kd (DENV RdRp [7]) is listed as 210 µM.
In the case of `O=c1[nH]c2ccccc2n1C1CCN(Cc2ccc(-c3nc4cc5[nH]cnc5cc4nc3-c3ccccc3)cc2)CC1` [RAI-5, AKT inhibitor VIII], the “inhibitory effect on DENV RdRp activity” value (DENV RdRp [1]) is reported as “no inhibitory effect” and the IC50 (hNV-RdRp) is reported as 47.3 µM.
For `Cc1ccc(NC(=O)Nc2cc(C(F)(F)F)ccc2F)cc1Nc1ccc2c(c1)NC(=O)/C2=C\c1ccc[nH]1` [RAI-14, GNF-5837], the “inhibitory effect on DENV RdRp activity” value (DENV RdRp [1]) was “no inhibitory effect” and the IC50 (hNV-RdRp) was 45.5 µM.
